Test results taken from ChEMBL document CHEMBL5050861 (2021).
≈ marks a conversion by molar mass, not a printed value.

Assays:
[1] = Inhibition of recombinant mouse GALK1 using ATP as substrate incubated for 1 hr and measured by Kinase-Glo assay
Galactokinase = Galactokinase (Homo sapiens, UniProt P51570); assay: Inhibition of recombinant human GALK1 using ATP as substrate incubated for 1 hr and measured by Kinase-Glo assay
[2] = Inhibition of human GALK1 K252A/E253A double mutant; settings: read-out: IC50
Homo sapiens = species: Homo sapiens; assay: Inhibition of human GALK1 K252A/E253A double mutant relative to control; set-up: concentration or dose not given beside the values; settings: concentration not given here
[3] = Stability of compound in rat microsomes assessed as half-life; format: ADME, Microsome
[4] = Permeability of compound by PAMPA assay; format: ADME; settings: read-out: permeability
[5] = Kinetic aqueous solubility of the compound; format: physicochemical; settings: buffer; read-out: Kinetic_solubility
Fibroblast = assay: Inhibition of human GALK1 K252A/E253A double mutant in human skin fibroblasts at 10 uM assessed as reduction in Gal-1P accumulation; format: cell-based
[6] = Stability of compound in rat liver microsomes assessed as half-life; format: ADME, Microsome
[7] = Stability of compound in mouse liver microsomes assessed as half-life; format: ADME, Microsome
[8] = Stability of compound in human liver microsomes assessed as half-life; format: ADME, Microsome
[9] = Binding affinity towards human GALK1 K252A/E253A double mutant measured by surface plasmon resonance (SPR) assay

Sequence of Galactokinase (P51570 whole entry): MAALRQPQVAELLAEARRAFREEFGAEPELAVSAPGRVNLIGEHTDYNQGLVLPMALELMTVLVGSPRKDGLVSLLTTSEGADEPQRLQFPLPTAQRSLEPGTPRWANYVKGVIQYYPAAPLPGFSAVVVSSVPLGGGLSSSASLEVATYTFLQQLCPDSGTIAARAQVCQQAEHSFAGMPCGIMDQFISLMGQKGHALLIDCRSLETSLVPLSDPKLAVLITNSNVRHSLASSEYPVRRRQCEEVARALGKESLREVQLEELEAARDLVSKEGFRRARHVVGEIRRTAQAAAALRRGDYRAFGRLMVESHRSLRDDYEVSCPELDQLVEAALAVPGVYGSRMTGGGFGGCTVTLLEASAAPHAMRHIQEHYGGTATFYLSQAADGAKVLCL

| IC50 [1] | IC50 (Galactokinase) | IC50 [2] [nM] | half-life [3] [min] | Papp [4] [×10⁻⁶ cm/s] | solubility kinetic [5] [µg/mL] | IC50 ([1]; read-out: IC50) [µM] | SMILES | also measured |
| --- | --- | --- | --- | --- | --- | --- | --- | --- |
| Not Active | Not Active | > 15000 | > 30 | < 10 | 47.8 (≈ 81.4 µM) | – | CC1=C(C(=O)Nc2cc(C(=O)O)ccn2)C(c2ccccc2Cl)N=C(Nc2nc3cccc(OC(F)(F)F)c3o2)N1 (stereo not given) | inhibition (Homo sapiens): 88% |
| – | – | 14 | 17.1 | – | 1.27 (≈ 2.43 µM) | 0.69 | CC1=C(C(=O)NCc2cnn(C)c2)C(c2ccc(C)cc2Cl)N=C(Nc2nc3ccc(F)c(N)c3o2)N1 (stereo not given) | inhibition (Fibroblast): 100%; half-life [6]: 16 min; half-life [7]: 13 min; t1/2 [8]: 47 min |
| Not Active | Not Active | – | > 30 | < 1.8 | < 1 | – | CC1=C(C(=O)Nc2cccc(Br)c2)C(c2ccccc2Cl)N=C(Nc2nc3ccccc3o2)N1 (stereo not given) | – |
| – | – | – | > 30 | – | < 1 | 19.3 | COCC1=C(C(=O)Nc2nncs2)C(c2ccccc2Cl)N=C(Nc2nc3ccccc3o2)N1 (stereo not given) | IC50 (Galactokinase; read-out: IC50): 13700 nM |
| Not Active | Not Active | – | 11.9 | – | < 1 | – | CC1=C(C(=O)NCc2ccc(Cl)cc2)C(c2ccccc2Cl)N=C(Nc2nc3ccccc3o2)N1 (stereo not given) | – |
| Not Active | Not Active | – | 25.6 | – | < 1 | – | COC(=O)c1ccnc(NC(=O)C2=C(C)NC(Nc3nc4ccccc4o3)=N[C@@H]2c2ccccc2Cl)c1 | – |
| – | Not Active | – | > 30 | 2 | < 1 | 7.69 | CC1=C(C(=O)Nc2ccc(Cl)cc2)C(c2ccccc2Cl)N=C(Nc2nc3ccccc3o2)N1 (stereo not given) | – |
| Not Active | Not Active | – | 4.22 | – | < 1 | – | CC1=C(C(=O)NCc2ccccc2Cl)C(c2ccccc2Cl)N=C(Nc2nc3ccccc3o2)N1 (stereo not given) | – |
| – | – | – | – | – | – | 1.72 | CC1=C(C(=O)Nc2cc(C(=O)O)ccn2)[C@H](c2ccccc2Cl)N=C(Nc2nc3cccc(N)c3o2)N1 | IC50 (Galactokinase; read-out: IC50): 86 nM |
| Not Active | Not Active | – | > 30 | – | 50.9 (≈ 115 µM) | – | CC1=C(C(=O)Nc2nncs2)C2(Cc3ccccc32)N=C(Nc2nc3ccccc3o2)N1 (stereo not given) | – |
| – | – | 77 | > 30 | – | > 76 | 3.43 | CC1=C(C(=O)Nc2cc(C(=O)O)ccn2)C(c2ccccc2Cl)N=C(Nc2nc3cccc(N)c3o2)N1 (racemic) | Kd [9]: 12 nM; inhibition (Homo sapiens): 100% |
| – | – | 22 | 14.1 | – | < 1 | 0.61 | CCn1cc(CNC(=O)C2=C(C)NC(Nc3nc4ccc(F)c(N)c4o3)=NC2c2ccc(C)cc2Cl)cn1 (racemic) | inhibition (Fibroblast): 70% |
| – | – | 300 | > 30 | < 10 | 8.3 (≈ 15.1 µM) | 3.06 | COc1ccc(C2N=C(Nc3nc4ccc(F)cc4o3)NC(C)=C2C(=O)Nc2cc(C(=O)O)ccn2)c(Cl)c1 (stereo not given) | inhibition (Homo sapiens): 100% |
| Not Active | Not Active | – | > 30 | < 2.9 | < 1 | – | CC1=C(C(=O)Nc2nnc(-c3cccnc3)s2)C(c2ccccc2Cl)N=C(Nc2nc3ccc(C)cc3o2)N1 (stereo not given) | – |
| – | – | 970 | 24 | < 10 | < 1 | 13.7 | CC1=C(C(=O)Nc2ccccc2)C(c2ccccc2Cl)N=C(Nc2nc3ccccc3o2)N1 (stereo not given) | inhibition (Homo sapiens): 57% |
| Not Active | Not Active | – | – | – | – | – | COC(=O)c1ccccc1NC(=O)C1=C(C)NC(Nc2nc3ccccc3o2)=NC1c1ccccc1Cl (stereo not given) | – |

| IC50 [1] | IC50 (Galactokinase) | IC50 [2] [nM] | half-life [3] [min] | Papp [4] [×10⁻⁶ cm/s] | solubility kinetic [5] [µg/mL] | IC50 ([1]; read-out: IC50) [µM] | SMILES | also measured |
| --- | --- | --- | --- | --- | --- | --- | --- | --- |
| Not Active | Not Active | – | > 30 | < 9.2 | < 1 | – | CC1=C(C(=O)Nc2cccc(Cl)c2)C(c2ccccc2Cl)N=C(Nc2nc3ccccc3o2)N1 (stereo not given) | – |
| Not Active | – | > 15000 | > 30 | < 1 | 60.1 (≈ 108 µM) | – | CC1=C(C(=O)Nc2cc(C(=O)O)ccn2)C(c2cccc(C(F)(F)F)c2)N=C(Nc2nc3ccc(F)cc3o2)N1 (stereo not given) | inhibition (Homo sapiens): 90% |
| – | – | 260 | > 30 | – | 46.1 (≈ 88.5 µM) | 4.32 | CC1=C(C(=O)Nc2cc(C(=O)O)ccn2)C(c2ccccc2Cl)N=C(Nc2nc3ccc(F)cc3o2)N1 (racemic) | Kd [9]: 23 nM; inhibition (Homo sapiens): 100% |
| – | – | – | 25.3 | – | < 1 | 7.08 | COC(=O)c1ccnc(NC(=O)C2=C(C)NC(Nc3nc4cccc(N)c4o3)=NC2c2ccc(C)cc2Cl)c1 (stereo not given) | IC50 (Galactokinase; read-out: IC50): 2240 nM |
| Not Active | Not Active | – | 10.5 | – | 2.65 (≈ 5.88 µM) | – | COC(=O)C1=C(C(F)(F)F)NC(Nc2nc3ccccc3o2)=NC1c1ccccc1Cl (stereo not given) | – |
| – | – | – | 17.9 | 333 | < 1 | 1.09 | CCn1cc(C(C)NC(=O)C2=C(C)NC(Nc3nc4cccc(N)c4o3)=NC2c2ccc(C)cc2Cl)cn1 (stereo not given) | IC50 (Galactokinase; read-out: IC50): 50 nM |
| – | – | 258 | > 30 | < 1 | 40.6 (≈ 75.3 µM) | 4.32 | CC1=C(C(=O)Nc2cc(C(=O)O)ccn2)C(c2ccc(F)cc2Cl)N=C(Nc2nc3ccc(F)cc3o2)N1 (stereo not given) | inhibition (Homo sapiens): 100% |
| Not Active | Not Active | – | > 30 | < 19.1 | < 1 | – | COc1ccc2oc(NC3=NC(c4ccccc4Cl)C(C(=O)Nc4nnc(-c5cccnc5)s4)=C(C)N3)nc2c1 (stereo not given) | – |
| – | – | – | > 30 | 8.8 | < 1 | – | CCOC(=O)c1ccc(NC(=O)C2=C(C)NC(Nc3nc4ccccc4o3)=NC2c2ccccc2Cl)cc1 (stereo not given) | IC50 (Galactokinase; read-out: IC50): 3850 nM |
| Not Active | Not Active | – | 8.73 | – | 40.5 (≈ 85.1 µM) | – | CC1=C(C(=O)NCc2cn(C)cn2)[C@@H](c2ccccc2Cl)N=C(Nc2nc3ccccc3o2)N1 | – |
| Not Active | Not Active | – | 1.18 | – | < 1 | – | CC1=C(C(=O)N(C)c2ccccc2)C(c2ccccc2Cl)N=C(Nc2nc3ccccc3o2)N1 (stereo not given) | – |
| – | – | > 15000 | > 30 | < 1 | 61.1 (≈ 107 µM) | 48.5 | CC1=C(C(=O)Nc2cc(C(=O)O)ccn2)C(c2ccccc2Cl)N=C(Nc2nc3cccc(C(F)(F)F)c3o2)N1 (stereo not given) | inhibition (Homo sapiens): 100% |
| – | – | 2000 | > 30 | < 1 | > 79 | 12.2 | COc1ccc2oc(NC3=NC(c4ccccc4Cl)C(C(=O)Nc4cc(C(=O)O)ccn4)=C(C)N3)nc2c1 (stereo not given) | inhibition (Homo sapiens): 100% |
| – | Not Active | – | 19.3 | – | < 1 | 13.7 | CCOC(=O)C1=C(C)NC(Nc2nc3ccccc3o2)=NC1c1ccccc1Cl (stereo not given) | – |
| Not Active | Not Active | – | 5.75 | – | < 1 | – | CCOC(=O)C1=C(C(C)C)NC(Nc2nc3ccccc3o2)=NC1c1ccccc1Cl (stereo not given) | – |
